Entries after “also recorded” stand apart in the source; their conditions may differ. Read-outs that look alike come from different tables or passages of the source.
Experiments:
α2 receptors = settings: in words; cited from earlier work
[1] = compared to clonidine, cited from earlier work
[2] = system: people addicted to cigarettes or opiates; settings: cited from earlier work
PC/RS cortical neurons = assay: protection by anti-psychotic drugs against MK-801 (NRH)-induced vacuoles in rats; format: in vivo; settings: ip; for ED50: Rattus norvegicus, Cortical neurone; for protection against vacuoles (activity in words): MK-801-treated rats
Experimental: Control animals received saline or DMSO, but no anti-psychotic drugs. Test animals were injected ip with an antipsychotic drug, listed above and in Table 2. Vacuoles were counted and data were processed as described in Example 1.

sigma receptors = settings: sigma and dopamine receptors; cited from earlier work
[3] = system: KA and/or QUIS/AMPA classes of EAA receptors; assay: blocking of MK-801 neurotoxic side effects by non-NMDA antagonist drugs in vivo; settings: adult rats
Excerpt: In addition to the foregoing classes of drugs, the Applicants have also recently discovered that non-NMDA antagonist drugs which can penetrate the BBB and block the KA and/or QUIS/AMPA classes of EAA receptors.

[4] = Sershen 1994; cited from earlier work
cerebral cortex = settings: cited from earlier work
[5] = system: alpha-2 adrenergic receptor; settings: for shift of clonidine blocking curve: preliminary, combined with clonidine (n=4), yohimbine 1 mg/kg ip or rauwolscine 5 mg/kg ip
Experimental: The brains were processed and the severity of damage assessed as described in Example 1. Results were analyzed by analysis of variance (ANOVA) where the dose of xylazine was the covariate and the presence of yohimbine served as the classification (treatment) variable. The homogeneity of slopes assumption was tested by determining whether there was a significant interaction between the covariate and the treatment variable.

[6] = penetration of sulpiride into the CNS; format: in vivo; settings: in words
[7] = system: pyramidal neurons in layers III and IV of the posterior cingulate (PC) and retrosplenial (RS) cortices; assay: protection by alpha-2 adrenergic agonists against MK-801 neurotoxicity (vacuolated PC/RS neurons) in rats; settings: for ED50: Rattus norvegicus, Pyramidal neuron, ip; for relative potency in preventing the neurotoxic reaction: ranking in words among the four α2 agonists
Excerpt: For each test agent, at least 17 rats were used and at least four doses tested.
The rats were sacrificed four hours after treatment, and brain tissue from the PC/RS region was histopathologically evaluated by previously described methods using double-blinded techniques (Olney et al 1991). The number of vacuolated PC and RS neurons were counted on each side of the brain at a rostrocaudal level immediately posterior to where the corpus callosum ceases decussating across the midline (approximately 5.6 mm caudal to Bregma; Paxinos & Watson, The Rat Brain in Stereotaxic Coordinates, 2d Ed., 1986).

chick embryo retina = assay: NMDA excitotoxicity in chick embryo retina segments, protection by MK-801 with or without alpha-2 agonist; format: cell-based; settings: MK-801 500 nM; for cytopathology in retina incubated in NMDA plus MK-801, without or with α2 agonist: NMDA 40 μM, α2 agonist 500 nM to 100 μM, n=6 per condition
Experimental: These experiments were performed using segments of chick embryo retina. This is a widely used model for studying the production and prevention of excitotoxic phenomena, since it is simple and inexpensive. Chick tissue is used, since it tends to provide a better model of adult mammalian tissue than embryonic or juvenile mammalian tissue. Unlike newborn mammals, which are usually blind at birth, baby chicks can see quite well as soon as they emerge from the shell, and the NMDA receptors in chick retinal tissue are fully mature and functional.
In these tests, NMDA was introduced into the incubation medium in a concentration (40 μM) sufficient to produce a fully developed excitotoxic lesion within 30 min, displaying acute degeneration and necrosis of the majority of neurons in the inner layers of the retina.

[8] = cited from earlier work
NMDA receptor = settings: humans, literature; cited from earlier work

Compound: CC(Oc1c(Cl)cccc1Cl)C1=NCCN1 (stereo not shown) [lofexidine]
- affinity/selectivity for α2 over α1 receptors (α2 receptors): activate α2 receptors with higher affinity than they have for α1 receptors
- hypotensive side effects [1]: substantially lower hypotensive side effects than clonidine; also recorded: substantially lower activity in reducing blood pressure than clonidine
- hypotensive side effects ([1]; listed as Lofexidine): reduced hypotensive side effects compared to clonidine
- reduction of withdrawal symptoms [2]: help reduce withdrawal symptoms in some recovering addicts

Compound: C[C@@H]1CN(CCCn2c3ccccc3c3ccccc32)C[C@H](C)N1 [Rimcazole]
- ED50 (PC/RS cortical neurons): 17.8 mg/kg
- receptor selectivity (sigma receptors): substantial affinity only for sigma receptors

Compound: NS(=O)(=O)c1cccc2c1c([N+](=O)[O-])cc1nc(O)c(O)nc12 [NBQX, 2,3-dihydroxy-6-nitro-7-sulfamoylbenzo(F)quinoxaline]
- block of neurotoxic side effects of NMDA antagonist drugs such as MK-801 [3]: can also block the neurotoxic side effects of NMDA antagonist drugs such as MK-801

Compound: CSc1ccc2c(c1)N(CCC1CCCCN1C)c1ccccc1S2 (stereo not shown) [Thioridazine]
- ED50 (PC/RS cortical neurons): 55.3 mg/kg
- receptor selectivity (sigma receptors): interact with both dopamine receptors and sigma receptors

Compound: CC[C@H]1C[C@H]2C[C@H]3c4[nH]c5ccc(OC)cc5c4CCN(C2)[C@@H]13 [ibogaine]
- craving for cocaine [4]: can suppress the craving for cocaine

Compound: CCNC1(c2cccs2)CCCCC1=O (stereo not shown) [Tiletamine]
- pathomorphological changes in brain (cerebral cortex; adult rat, literature): cause pathomorphological changes in the cerebral cortex of adult rats

Compound: COC(=O)[C@@H]1[C@H]2C[C@H]3c4[nH]c5ccccc5c4CCN3C[C@@H]2CC[C@@H]1O [yohimbine]
- shift of clonidine blocking curve [5]: A similar shifting of the curve to the right
- effect on xylazine's protection ([5]; yohimbine 1 mg/kg ip with various doses of xylazine, MK-801-treated rats, F(1,42)=9.40, p=0.004): significantly interfered with xylazine's protection
- shift of xylazine blocking curve ([5]; yohimbine 1 mg/kg ip, MK-801-treated rats, FIG. 2): shifted the blocking curve to the right

Compound: CCN1CCCC1CNC(=O)c1cc(S(N)(=O)=O)ccc1OC (stereo not shown) [Sulpiride]
- ED50 (PC/RS cortical neurons): > 200 mg/kg
- protection against vacuoles (activity in words) (PC/RS cortical neurons): Inactive
- protection against vacuoles (activity in words) (PC/RS cortical neurons; listed as sulpiride): inactive
- time to penetrate into the CNS [6]: several hours

Compound: Cc1cccc(C)c1N=C1NCCCS1 [Xylazine]
- ED50 ([7]; 4 h): 2.4 mg/kg
- relative potency in preventing the neurotoxic reaction [7]: the least potent
- cytopathology in retina incubated in NMDA plus MK-801, without or with α2 agonist (chick embryo retina): no cytopathology
- affinity/selectivity for α2 over α1 receptors (α2 receptors): activate α2 receptors with higher affinity than they have for α1 receptors

Compound: O=C(CCCN1CCC(O)(c2ccc(Cl)cc2)CC1)c1ccc(F)cc1 [Haloperidol]
- ED50 (PC/RS cortical neurons): 5.1 mg/kg
- receptor selectivity (sigma receptors): interact with both dopamine receptors and sigma receptors

Compound: C[C@]12N[C@H](Cc3ccccc31)c1ccccc12 [MK-801, (+)-5-methyl-10,11-dihydro-5H-di[a,d]-cyclohepten-5,10-imine]
- mean number of vacuolated neurons per section ([7]; MK-801 0.5 mg/kg sc plus vehicle, 4 h, SEM, n=26): 223±10.5 vacuolated neurons per section
- neurotoxic reaction to MK-801 ([7]; all control animals, MK-801 0.5 mg/kg sc): All control animals developed a neurotoxic reaction
- protection against excitotoxic damage (chick embryo retina; regardless of α2 agonist): completely protected against excitotoxic damage
- cytopathology in retina incubated in NMDA plus MK-801, without or with α2 agonist (chick embryo retina): no cytopathology
- duration of action ([8]; in words): measured in days

Compound: CN1CCN(C2=Nc3ccccc3Oc3ccc(Cl)cc32)CC1 [Loxapine]
- ED50 (PC/RS cortical neurons): 23.6 mg/kg
- receptor selectivity (sigma receptors): interact with both dopamine receptors and sigma receptors

Compound: Clc1cccc(Cl)c1N=C1NCCN1 [Clonidine]
- ED50 ([7]; 4 h): 0.044 mg/kg
- relative potency in preventing the neurotoxic reaction [7]: the most potent
- cytopathology in retina incubated in NMDA plus MK-801, without or with α2 agonist (chick embryo retina): no cytopathology
- affinity/selectivity for α2 over α1 receptors (α2 receptors): activate α2 receptors with higher affinity than they have for α1 receptors
- reduction of withdrawal symptoms [2]: help reduce withdrawal symptoms in some recovering addicts

Compound: CNC1(c2ccccc2Cl)CCCCC1=O (stereo not shown) [Ketamine]
- pathomorphological changes in brain (cerebral cortex; rat, in vivo): cause pathomorphological changes in the cerebral cortex of adult rats
- duration of action ([8]; ketamine, human anesthesia): about 15 minutes

Compound: COC(=O)[C@H]1[C@H]2C[C@H]3c4[nH]c5ccccc5c4CCN3C[C@H]2CC[C@@H]1O [rauwolscine]
- shift of clonidine blocking curve [5]: A similar shifting of the curve to the right

Compound: c1ccc(C2(N3CCCCC3)CCCCC2)cc1 [Phencyclidine]
- pathomorphological changes in brain (cerebral cortex; adult rat, literature): produce pathomorphological changes in various corticolimbic regions of the adult rat brain
- psychotomimetic reactions (NMDA receptor): can induce a psychosis which is clinically indistinguishable from schizophrenia

Compound: N=C(N)NC(=O)Cc1c(Cl)cccc1Cl [guanfacine]
- affinity/selectivity for α2 over α1 receptors (α2 receptors): activate α2 receptors with higher affinity than they have for α1 receptors; also recorded: substantially higher selectivity for α2 receptors (and substantially lower affinity for α1 receptors) than clonidine
- hypotensive side effects [1]: substantially lower activity in reducing blood pressure than clonidine
